For one test, the target named is Protease (Human immunodeficiency virus 1, UniProt Q9YQ12). The test can be described thus: Binding affinity to HIV1 protease.
Test [1] has as its system Human immunodeficiency virus 1. The test can be described thus: Ratio of Ki for HIV1 protease V82A mutant to Ki for wild type HIV1 protease.
Test [2] addresses Human immunodeficiency virus type 1 protease (Human immunodeficiency virus 1, UniProt Q72874, V82A). Description: Binding affinity to HIV1 protease V82A mutant.

Structures are written as SMILES. pKi: −log10 of the molar value.

Protease, sequence (Q9YQ12 whole entry): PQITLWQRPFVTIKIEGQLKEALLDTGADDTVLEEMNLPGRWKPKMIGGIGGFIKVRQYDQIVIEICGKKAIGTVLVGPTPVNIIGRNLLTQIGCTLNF

Consider `CC(C)[C@H](NC(=O)N(C)Cc1ccccn1)C(=O)N[C@@H](Cc1ccccc1)[C@H](O)[C@@H](O)[C@H](CC1CCCCC1)NC(=O)[C@@H](NC(=O)N(C)Cc1ccccn1)C(C)C`, for which the pKi – broadly, the negative decadic logarithm of the Ki, by convention in mol/L – at Protease was 8.49. The Ratio Ki in test [1] is 4.

As to `CC(C)[C@H](NC(=O)N(C)Cc1ccccn1)C(=O)N[C@@H](CC1CCCCC1)[C@H](O)[C@@H](O)[C@H](CC1CCCCC1)NC(=O)[C@@H](NC(=O)N(C)Cc1ccccn1)C(C)C`, the negative logarithm of the Ki (pKi) in test [2] was 7.92; at Protease, 8.22. Besides, the Ratio Ki in test [1] stood at 2.

On to `CC(C)[C@H](NC(=O)N(C)Cc1ccccn1)C(=O)N[C@@H](Cc1ccccc1)[C@H](O)[C@@H](O)[C@H](Cc1ccccc1)NC(=O)[C@@H](NC(=O)N(C)Cc1ccccn1)C(C)C` [A-76928], for which the figures for the negative-log Ki (pKi) (in test [2]; on Protease) were 8.05 and 8.89, respectively. The Ratio Ki in test [1] stood at 7.

(Values after ChEMBL document CHEMBL1143243, “Design, synthesis, evaluation, and crystallographic-based structural studies of HIV-1 protease inhibitors with reduced response to the V82A mutation” (J Med Chem, 2008).)
